Assay results reported in PubChem BioAssay AID248 (DTP/NCI, 2004).
Where “and” joins values, the source holds several entries; their conditions need not be identical. Equal entries are not always repeated. Toxic doses and inconclusive results are not listed. Rule as the data show it: active = T/C of 150% or more; inactive = T/C below 125%.

Tested on: L1210 leukemia ip in BDF1 mice, survival T/C
Test: NCI In Vivo Anticancer Drug Screen. Data for tumor model L1210 Leukemia (intraperitoneal) in B6D2F1 (BDF1) mice
Details: endpoint: mean survival time, higher = longer survival
Summary of the method: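 Transplanted-tumor mice were given test agent; controls received vehicle only. Survival readings from the two groups were divided (treated over control).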

[1] = dose: 100.0 mg/kg/injection, schedule: Q01DX009 (ip), vehicle: saline
[2] = dose: 100.0 mg/kg/injection, schedule: Q04DX003 (ip), vehicle: saline
[3] = dose: 100.0 mg/kg/injection, schedule: Q04DX002 (ip), vehicle: Klucel (hydroxypropylcellulose) (HPC)
[4] = dose: 200.0 mg/kg/injection, schedule: Q04DX002 (ip), vehicle: Klucel (hydroxypropylcellulose) (HPC)
[5] = dose: 400.0 mg/kg/injection, schedule: Q04DX002 (ip), vehicle: Klucel (hydroxypropylcellulose) (HPC)
[6] = dose: 100.0 mg/kg/injection, schedule: Q01DX001 (ip), vehicle: carboxymethylcellulose (CMC)
[7] = dose: 200.0 mg/kg/injection, schedule: Q01DX001 (ip), vehicle: carboxymethylcellulose (CMC)
[8] = dose: 400.0 mg/kg/injection, schedule: Q01DX001 (ip), vehicle: carboxymethylcellulose (CMC)
[9] = dose: 100.0 mg/kg/injection, schedule: Q01DX009 (ip), vehicle: Klucel (hydroxypropylcellulose) (HPC)
[10] = dose: 100.0 mg/kg/injection, schedule: Q04DX003 (ip), vehicle: Klucel (hydroxypropylcellulose) (HPC)
[11] = dose: 200.0 mg/kg/injection, schedule: Q01DX009 (ip), vehicle: Klucel (hydroxypropylcellulose) (HPC)
[12] = dose: 200.0 mg/kg/injection, schedule: Q04DX003 (ip), vehicle: Klucel (hydroxypropylcellulose) (HPC)
[13] = dose: 400.0 mg/kg/injection, schedule: Q01DX009 (ip), vehicle: Klucel (hydroxypropylcellulose) (HPC)
[14] = dose: 400.0 mg/kg/injection, schedule: Q04DX003 (ip), vehicle: Klucel (hydroxypropylcellulose) (HPC)
[15] = dose: 25.0 mg/kg/injection, schedule: Q04DX003 (ip), vehicle: Klucel (hydroxypropylcellulose) (HPC)
[16] = dose: 50.0 mg/kg/injection, schedule: Q04DX003 (ip), vehicle: Klucel (hydroxypropylcellulose) (HPC)
[17] = dose: 100.0 mg/kg/injection, schedule: Q01DX001 (ip), vehicle: other
[18] = dose: 200.0 mg/kg/injection, schedule: Q01DX001 (ip), vehicle: other
[19] = dose: 400.0 mg/kg/injection, schedule: Q01DX001 (ip), vehicle: other
[20] = dose: 200.0 mg/kg/injection, schedule: Q01DX009 (ip), vehicle: saline
[21] = dose: 400.0 mg/kg/injection, schedule: Q01DX009 (ip), vehicle: saline

Measured: T/C

CCCCCCCCC(CCCCCCCC)CC1CCC2CCCC21 (stereo not drawn)
inactive: dose: 75.0 mg/kg/injection, schedule: Q01DX001 (ip), vehicle: saline with Tween-80 93 % of control | dose: 150.0 mg/kg/injection, schedule: Q01DX001 (ip), vehicle: saline with Tween-80 90 % of control | dose: 300.0 mg/kg/injection, schedule: Q01DX001 (ip), vehicle: saline with Tween-80 90 % of control

C[N+](C)(C)CCCCCC[N+](C)(C)C
inactive: dose: 25.0 mg/kg/injection, schedule: Q01DX009 (ip), vehicle: saline 102 % of control | dose: 25.0 mg/kg/injection, schedule: Q04DX003 (ip), vehicle: saline 108 % of control | dose: 50.0 mg/kg/injection, schedule: Q01DX009 (ip), vehicle: saline 104 % of control | dose: 50.0 mg/kg/injection, schedule: Q04DX003 (ip), vehicle: saline 97 % of control | [1] 96 % of control | [2] 94 % of control and 89 % of control

O=C1c2ccccc2C(=O)N1c1cc(O)cc(O)c1
inactive: dose: 100.0 mg/kg/injection, schedule: Q01DX009 (ip), vehicle: water 95 % of control | dose: 100.0 mg/kg/injection, schedule: Q04DX003 (ip), vehicle: water 96 % of control | dose: 200.0 mg/kg/injection, schedule: Q01DX009 (ip), vehicle: water 95 % of control | dose: 200.0 mg/kg/injection, schedule: Q04DX003 (ip), vehicle: water 94 % of control | dose: 400.0 mg/kg/injection, schedule: Q01DX009 (ip), vehicle: water 101 % of control | dose: 400.0 mg/kg/injection, schedule: Q04DX003 (ip), vehicle: water 96 % of control

c1ccc(-c2nnc(-c3ccccn3)s2)nc1
inactive: dose: 50.0 mg/kg/injection, schedule: Q01DX001 (ip), vehicle: water 108 % of control | dose: 100.0 mg/kg/injection, schedule: Q01DX001 (ip), vehicle: water 103 % of control | dose: 200.0 mg/kg/injection, schedule: Q01DX001 (ip), vehicle: water 106 % of control | dose: 400.0 mg/kg/injection, schedule: Q01DX001 (ip), vehicle: water 111 % of control

O=S1c2ccccc2Oc2ccccc21
inactive: [3] 108 % of control | [4] 108 % of control | [5] 108 % of control

CC12CCC(=O)C3C1CCCC32
inactive: [6] 100 % of control | [7] 111 % of control | [8] 103 % of control

NC(=O)NNC(=O)c1ccccc1
inactive: [9] 100 % of control | [10] 96 % of control | [11] 104 % of control | [12] 94 % of control | [13] 98 % of control | [14] 100 % of control

N#Cc1ccc(S(=O)(=O)Cl)cc1
inactive: [15] 95 % of control | [16] 100 % of control | [10] 93 % of control and 91 % of control

Nc1nc2c(ncn2C(/C=N/Nc2ccccc2)OC(/C=N/Nc2ccccc2)CO)c(=O)[nH]1 (stereo not drawn)
inactive: [17] 98 % of control | [18] 106 % of control | [19] 108 % of control

CCOC(=O)C(OCc1ccccc1)(C(=O)N1CCCCC1=O)C(C)C (stereo not drawn)
inactive: [15] 119 % of control | [16] 97 % of control | [10] 113 % of control | [12] 88 % of control

O=C(O)C/C=C/c1ccccc1Br
inactive: dose: 100.0 mg/kg/injection, schedule: Q01DX001 (ip), vehicle: Klucel (hydroxypropylcellulose) (HPC) 91 % of control | dose: 200.0 mg/kg/injection, schedule: Q01DX001 (ip), vehicle: Klucel (hydroxypropylcellulose) (HPC) 101 % of control | dose: 400.0 mg/kg/injection, schedule: Q01DX001 (ip), vehicle: Klucel (hydroxypropylcellulose) (HPC) 95 % of control

CCN(CC)Cc1cc(Nc2ncnc3[nH]c(C)c(C)c23)ccc1O
inactive: dose: 12.5 mg/kg/injection, schedule: Q04DX002 (ip), vehicle: saline with Tween-80 98 % of control | dose: 25.0 mg/kg/injection, schedule: Q04DX002 (ip), vehicle: saline with Tween-80 94 % of control | dose: 50.0 mg/kg/injection, schedule: Q04DX002 (ip), vehicle: saline with Tween-80 88 % of control

CCCCC(=O)c1ccc(F)cc1
inactive: [9] 96 % of control | [10] 105 % of control | [11] 98 % of control | [12] 93 % of control | [13] 98 % of control | [14] 100 % of control

Clc1ccnc(Cl)n1
inactive: [1] 97 % of control | [2] 96 % of control | [20] 101 % of control | dose: 200.0 mg/kg/injection, schedule: Q04DX003 (ip), vehicle: saline 96 % of control | [21] 97 % of control | dose: 400.0 mg/kg/injection, schedule: Q04DX003 (ip), vehicle: saline 97 % of control

CCCCC#CC(O)(C(=O)OC)c1ccccc1 (stereo not drawn)
inactive: [17] 107 % of control | [18] 110 % of control | [19] 94 % of control

COc1ccc(C)cc1NC(=O)/C=C/c1ccccc1
inactive: [3] 100 % of control | [4] 100 % of control | [5] 100 % of control

CCC[CH2][Sn]([CH2]CCC)([O][Sn]([CH2]CCC)([CH2]CCC)[S]C#N)[S]C#N
inactive: dose: 6.25 mg/kg/injection, schedule: Q01DX009 (ip), vehicle: Klucel (hydroxypropylcellulose) (HPC) 95 % of control | dose: 12.5 mg/kg/injection, schedule: Q01DX009 (ip), vehicle: Klucel (hydroxypropylcellulose) (HPC) 97 % of control | dose: 25.0 mg/kg/injection, schedule: Q01DX009 (ip), vehicle: Klucel (hydroxypropylcellulose) (HPC) 89 % of control

CC(=O)Nc1ccc(Cc2ccccc2)cc1[N+](=O)[O-]
inactive: [6] 106 % of control | [7] 98 % of control | [8] 97 % of control

O=C(O)C/C1=C/CCCCCC1
inactive: dose: 100.0 mg/kg/injection, schedule: Q01DX001 (ip), vehicle: saline 96 % of control | [1] 96 % of control | dose: 200.0 mg/kg/injection, schedule: Q01DX001 (ip), vehicle: saline 92 % of control | [20] 96 % of control | dose: 400.0 mg/kg/injection, schedule: Q01DX001 (ip), vehicle: saline 101 % of control | [21] 93 % of control

O=C(O)CCSc1ccc2c(c1)CCCC2
inactive: dose: 100.0 mg/kg/injection, schedule: Q04DX003 (ip), vehicle: acetone 99 % of control | dose: 200.0 mg/kg/injection, schedule: Q04DX003 (ip), vehicle: acetone 100 % of control | dose: 400.0 mg/kg/injection, schedule: Q04DX003 (ip), vehicle: acetone 96 % of control

NC(=S)NNC(=O)Nc1ccc(F)c(Cl)c1
inactive: dose: 12.5 mg/kg/injection, schedule: Q01DX009 (ip), vehicle: other 94 % of control | dose: 25.0 mg/kg/injection, schedule: Q01DX009 (ip), vehicle: other 93 % of control | dose: 50.0 mg/kg/injection, schedule: Q01DX009 (ip), vehicle: other 96 % of control
